Test results: US8143254B2, “Methods for modulating ion channels” (Cornell Research Foundation, Inc., priority 2005, dated 2012)

Biological target: T1, Kv4.2 (Homo sapiens, UniProt Q9NZV8)
T1 construct: expressed in transfected cells; host or cells: Xenopus laevis oocytes (cRNA injection, pRAT vector)
T1 sequence (Q9NZV8 1-630): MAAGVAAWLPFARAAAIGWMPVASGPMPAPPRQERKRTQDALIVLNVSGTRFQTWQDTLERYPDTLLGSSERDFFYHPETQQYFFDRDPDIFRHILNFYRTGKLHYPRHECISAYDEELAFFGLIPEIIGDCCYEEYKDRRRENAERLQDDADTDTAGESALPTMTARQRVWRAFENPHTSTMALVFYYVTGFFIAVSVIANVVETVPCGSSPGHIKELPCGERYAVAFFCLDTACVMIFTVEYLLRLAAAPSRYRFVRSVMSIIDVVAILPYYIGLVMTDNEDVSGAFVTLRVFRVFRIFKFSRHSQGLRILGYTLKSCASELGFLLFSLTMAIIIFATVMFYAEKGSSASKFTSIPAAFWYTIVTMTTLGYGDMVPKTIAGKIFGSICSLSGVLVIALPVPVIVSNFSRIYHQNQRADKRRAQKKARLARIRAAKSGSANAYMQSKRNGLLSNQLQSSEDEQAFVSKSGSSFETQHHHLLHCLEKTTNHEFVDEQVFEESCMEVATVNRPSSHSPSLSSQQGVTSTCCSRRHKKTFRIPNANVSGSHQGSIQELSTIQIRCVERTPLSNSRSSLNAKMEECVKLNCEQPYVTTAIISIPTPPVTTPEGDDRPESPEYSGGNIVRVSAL
Assay: TEVC of X. laevis oocytes expressing Kv4.2
Assay type: cell-based
From the text: Kv2.1 mutants were constructed using the QuickChange Multi Site-Directed Mutagenesis Kit (Stratagene, La Jolla, Calif.). Mutant Kv2.1 genes (in the pGA1 oocyte expression vector for oocyte expression) were sequenced in their entirety to confirm appropriate mutations and check for inadvertent mutations, and then subcloned into a wild-type pGA1 backbone. For oocyte expression, Kv3.4 was in pBF1, Kv4.2 was in pRAT. cRNA transcripts were produced from SacII-linearized (Kv2.1), Mlullinearized (Kv3.4) and Not1-linearized (Kv4.2) DNA templates using the T3 (Kv2.1), SP6 (Kv3.4) and T7 (Kv4.2) mMessage mMachine kits (Ambion, Austin, Tex.). cRNA was quantified by spectrophotometry and its size integrity verified by gel electophoresis. Defolliculated stage V and VI Xenopus laevis oocytes (purchased from Nasco, Grand Island, N.Y.) were injected with 5 ng of cRNA encoding Kv2.1, Kv3.4 or Kv4.2. Chinese Hamster Ovary (CHO) cells were transfected with 0.25 μg Kv2.1 cDNA, 2 μg blank plasmid and 2 μg Green fluorescent Protein in pBOB using Supetfect transfection reagent (Qiagen) 24 hours before whole-cell voltage clamp studies.
Whole-cell two-electrode voltage-clamp (TEVC) recordings were performed on X laevis oocytes expressing cloned Kv2.1, Kv3.4 or Kv4.2 using a Warner OC-725C amplifier and pClamp9 (Axon Instruments, Foster City, Calif.) software. Oocytes were bathed in a small-volume Warner oocyte bath and viewed with a Fisher dissection microscope. Bath solution for whole-cell oocyte recordings was (in mM): 96 NaCl, 4 KCl, 0.7 MgCl2, 1 CaCl2, 10 HEPES (pH 7.4); whole-cell oocyte TEVC pipettes were of 0.2-2 M resistance when filled with 3 M KCl. Experiments were performed 24-48 hours after cRNA injection. For assessment of current-voltage relationships in the absence or presence of dabco derivatives, oocytes were held at −80 mV, stepped for 2 seconds at voltages between −80 mV and +60 mV in 20 mV steps (Kv2.1) or between −80 and +50 mV in 10 mV steps (Kv3.4), then held for 500 ms at −40 mV before returning to the holding potential. […]

SMILES: CCCCCCCCCCCC[N+]12CCN(CC1)CC2 [JE188, 1-aza-4-azonia-4-dodecylbicyclo[2.2.2]octane]
- block of Kv4.2 (100 μM): 3%

SMILES: c1cc(C[N+]23CCN(CC2)CC3)ccc1C[N+]12CCN(CC1)CC2 [JC638.2α, α,α′-[bis(4-aza-1-azoniabicyclo[2.2.2]octanyl)]p-xylene]
- block of Kv4.2 (0.5 mM): 38%

SMILES: C(CCCC[N+]12CCN(CC1)CC2)CCC[N+]12CCN(CC1)CC2 [TG27, 1,8-[bis(4-aza-1-azoniabicyclo[2.2.2]octanyl)]octane]
- block of Kv4.2 (1 mM): 3%
